Counter-ions that a name gives are not always drawn.
What was measured:
Ret wt = target: T1, Ret wt (Homo sapiens, UniProt P07949); test: HTRF kinase activity test, RET wild type; format: biochemical; details: Table 3; read-out: RET Enzyme (wild type) IC50
T1 construct: purchased Invitrogen PV3082
Experimental: This test combined peptide substrates and a single proprietary monoclonal antibody with HTRF technology, which was a highly sensitive and stable technology for detecting molecular interactions of proteins. The enzyme phosphorylates the substrate, then the Eu-labeled antibody binds to the phosphorylated substrate, and streptavidin-XL665 binds to all substrates. The TR-FRET signal was generated by the HTRF principle. […] Based on this, the inhibitory effect was evaluated.
(§1) The other compounds were diluted 3-fold gradiently with DMSO from the 10 mM stock solution to a total of 10 concentrations respectively.
(§2) Adding 4 volumes of distilled water to 1 volume of enzyme buffer 5×; 5 mM MgCl2; 1 mM DTT.
(§3) b) centrifuging the compound plate for 1 minute at 1000 g.
(§4) c) sealing the test board.
(§5) f) adding 4 μl of 1× kinase buffer to each well of the test plate, centrifuging the sample plate at 1000 g for 30 seconds, and placing it at room temperature for 10 minutes.
(§6) g) preparing a solution of 5× TK-substrate-biotin ([…]) in kinase buffer and 5×ATP (50 μM) in kinase buffer respectively.
(§7) h) starting the reaction by adding 2 μl STK-substrate-biotin and 2 μl ATP (prepared in the step g).
(§8) i) centrifuging the sample plate for 30 seconds at 1000 g. Sealing the test board and placing it at room temperature for 30 minutes.
(§9) ) centrifuging at 1000 g for 30 seconds and placing it at room temperature for 1 hour.
(§10) The inhibition rate % was calculated as follows:
(§11) Inhibition rate %=[1−(fluorescence signal value of test compound−fluorescence signal value of positive control)/(average ratio of negative control−average ratio of positive control)]*100%
(§12) Ratio: generated from the measured fluorescence signal value
(§13) The average ratio of the positive control is the average ratio of the positive control (200 nM AT13148) in the sample plate;
(§14) The average ratio of negative controls is the average ratio of negative controls (0.1% DMSO) in the sample plate.
(§15) GraphPad 6.0 was used to fit the logarithm of the % inhibition rate and the compound concentration into a nonlinear regression (dose response−variable slope) to calculate the IC50 value.

TT Cell = test: Cell inhibitory activity test (CCK8); format: cell-based; details: Homo sapiens, TT, Table 3, 72 hours incubation
Experimental: Cell Inhibitory Activity Test
1. preparing 90 μl of cell suspension in a 96-well plate with 4000 cells/well. Pre-incubating the culture plate in an incubator for 24 hours (37° C., 5% CO2).
2. adding 10 μl of test compounds of different concentrations to each well of cells, and each compound has multiple wells.
3. incubating the culture plate in the incubator for 72 hours.
4. adding 10 μl of CCK8 solution to each well (be careful not to generate bubbles in the well, otherwise they would affect the reading of the OD value).
5. incubating the culture plate in the incubator for 1-2 hours.
6. measuring the absorbance at 450 nm with a microplate reader.
7. according to the compound concentration and absorbance value, GraphpadPrism software was used to calculate the IC50 of each compound.

[1] = test system: RET wild-type, mutant and/or fusion-type; test: Overall statement on RET inhibitory activity (summary of Table 3); details: statement in words summarising Table 3
Source text: As shown in the above table, the example compounds of the present disclosure have improved inhibitory activity against RET wild-type, mutant and/or fusion-type.

RET (V804M) = target: T2, RET (V804M) (Homo sapiens, UniProt P07949, V804M); test: HTRF kinase activity test, RET V804M; format: biochemical; details: Table 3; read-out: RET Enzyme (V804M) IC50
T2 construct: purchased Signalchem R02-12GG
Experimental: This test combined peptide substrates and a single proprietary monoclonal antibody with HTRF technology, which was a highly sensitive and stable technology for detecting molecular interactions of proteins. The enzyme phosphorylates the substrate, then the Eu-labeled antibody binds to the phosphorylated substrate, and streptavidin-XL665 binds to all substrates. The TR-FRET signal was generated by the HTRF principle. Once the inhibitor (test compound) was added, a weaker TR-FRET signal is obtained. Based on this, the inhibitory effect was evaluated.
as §1, §2
a) Transferring 10 nl of the compound dilution (prepared in 5.2) to each well of the test plate (784075, Greiner);
as §3, §4
d) preparing 5×Ret wt (0.2 ng/μl) and 5×Ret V804L (0.5 ng/μl)/5×Ret V804M (0.5 ng/μl) in 1× kinase buffer respectively.
e) adding 2 μl of 5×Ret wt or 2 μl of Ret V804L/RET V804M to a 384-well test plate (784075, Greiner).
as §5, §6, §7, §8
j) preparing 4×Sa-XL 665 (250 nM) in HTRF detection buffer.
k) adding 5 μl of Sa-XL 665 and 5 μl of TK-antibody-Cryptate (prepared in the step i) to each well of the test plate.
as §9
m) reading the fluorescence signal values at 615 nm (Cryptate) and 665 nm (XL665) on the Envision 2104 plate reader.
Calculating the ratio of each hole (665 nm/615 nm).
as §10, §11, §12, §13, §14, §15

T2 sequence (P07949 29-1114 V804M): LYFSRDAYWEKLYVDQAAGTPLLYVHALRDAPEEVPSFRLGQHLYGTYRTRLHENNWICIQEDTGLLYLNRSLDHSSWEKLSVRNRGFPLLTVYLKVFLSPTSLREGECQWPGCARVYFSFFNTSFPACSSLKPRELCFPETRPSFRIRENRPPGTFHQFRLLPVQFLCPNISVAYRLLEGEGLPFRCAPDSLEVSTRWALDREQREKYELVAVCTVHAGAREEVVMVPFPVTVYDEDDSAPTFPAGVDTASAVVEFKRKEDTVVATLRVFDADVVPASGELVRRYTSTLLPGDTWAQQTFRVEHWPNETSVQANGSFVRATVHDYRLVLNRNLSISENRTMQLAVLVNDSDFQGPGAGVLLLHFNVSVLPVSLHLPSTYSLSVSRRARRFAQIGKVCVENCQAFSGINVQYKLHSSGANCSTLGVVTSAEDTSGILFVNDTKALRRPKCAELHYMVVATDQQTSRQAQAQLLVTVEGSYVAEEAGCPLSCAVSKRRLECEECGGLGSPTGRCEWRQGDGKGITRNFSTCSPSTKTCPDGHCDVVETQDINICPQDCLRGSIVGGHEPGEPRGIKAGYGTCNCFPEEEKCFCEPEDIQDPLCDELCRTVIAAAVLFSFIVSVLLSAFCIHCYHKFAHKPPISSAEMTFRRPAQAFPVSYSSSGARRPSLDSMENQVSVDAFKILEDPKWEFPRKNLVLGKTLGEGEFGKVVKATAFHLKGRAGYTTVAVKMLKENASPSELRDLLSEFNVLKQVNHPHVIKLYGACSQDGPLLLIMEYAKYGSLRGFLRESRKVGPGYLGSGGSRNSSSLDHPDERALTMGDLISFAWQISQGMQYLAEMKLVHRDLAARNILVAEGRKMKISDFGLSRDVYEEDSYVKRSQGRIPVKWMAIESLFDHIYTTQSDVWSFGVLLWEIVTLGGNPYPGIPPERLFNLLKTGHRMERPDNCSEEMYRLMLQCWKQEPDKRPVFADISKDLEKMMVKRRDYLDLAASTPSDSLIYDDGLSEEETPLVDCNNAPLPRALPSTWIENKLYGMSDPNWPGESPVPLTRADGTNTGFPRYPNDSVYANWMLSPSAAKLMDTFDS
T1 sequence (P07949 29-1114): as the sequence (P07949 29-1114 V804M) above, with M776V counted along it

SMILES	IC50 (Ret wt)	IC50 (TT Cell)	inhibitory activity against RET wild-type, mutant and/or fusion-type [1]	IC50 (RET (V804M))
COc1ccc(CN2C3CC2CN(c2cnc(-c4cc(OC[C@@H]5CNCCO5)cn5nc(N)c(C#N)c45)cn2)C3)cn1 [APS087, 2-amino-4-(5-(6-((6-methoxypyridin-3-yl)methyl)-3,6-diazabicyclo[3.1.1]heptan-3-yl)pyrazin-2-yl)-6-(((S)-morpholin-2-yl)methoxy)pyrazolo[1,5-a]pyridine-3-carbonitrile trifluoroacetate]	< 1 nM	< 1 nM	excellent activity	< 1 nM
COc1ccc(CN2C3CC2CN(c2ccc(-c4cc(OCC(C)(C)O)cn5nc(N)c(C#N)c45)cn2)C3)cn1 [APS089]	1.8 nM	18.6 nM	excellent activity	1.6 nM
COc1ccc(CN2C3CC2CN(c2ccc(-c4cc(OCC(C)(C)O)cn5nc(F)c(C#N)c45)cn2)C3)cn1 [APS090]	54 nM	31.4 nM	–	486 nM
CCOc1cc(-c2cnc(N3CC4CC(C3)N4Cc3ccc(OC)nc3)cn2)c2c(C#N)c(N)nn2c1 [APS092, 2-amino-6-ethoxy-4-(5-(6-((6-methoxypyridin-3-yl)methyl)-3,6-diazabicyclo[3.1.1]heptane-3-yl)pyrazin-2-yl)pyrazolo[1,5-a]pyridine-3-carbonitrile]	4.3 nM	60 nM	excellent activity	2.7 nM
CCOc1cc(-c2ccc(N3CC4CC(C3)N4Cc3ccc(OC)nc3)nc2)c2c(C#N)c(N)nn2c1 [APS095]	< 1 nM	38.6 nM	excellent activity	< 1 nM
COCCOc1cc(-c2ccc(N3CC4CC(C3)N4Cc3ccc(OC)nc3)nc2)c2c(C#N)c(N)nn2c1 [APS097, 2-amino-6-(2-methoxyethoxy)-4-(6-(6-((6-methoxypyridin-3-yl)methyl)-3,6-diazabicyclo[3.1.1]heptan-3-yl)pyridin-3-yl)pyrazolo[1,5-a]pyridine-3-carbonitrile]	< 1 nM	75.5 nM	excellent activity	< 1 nM
COCCOc1cc(-c2ccc(N3CC4CC(C3)N4Cc3ccc(OC)nc3)nc2)c2c(C#N)c(F)nn2c1 [APS098, 2-fluoro-6-(2-methoxyethoxy)-4-(6-(6-((6-methoxypyridin-3-yl)methyl)-3,6-diazabicyclo [3.1.1]heptan-3-yl)pyridin-3-yl)pyrazolo[1,5-a]pyridine-3-carbonitrile]	144 nM	–	–	85.6 nM
COCCOc1cc(-c2ccc(N3CC4CC(C3)N4Cc3ccc(OC)nc3)nc2)c2c(C#N)c(NC(C)=O)nn2c1 [APS103]	261 nM	–	–	155 nM
COc1ccc(CN2C3CC2CN(c2cnc(-c4cc(OC[C@@H]5CN(C)CCO5)cn5nc(F)c(C#N)c45)cn2)C3)cn1 [APS104, 2-fluoro-4-(5-(6-((6-methoxypyridin-3-yl)methyl)-3,6-diazabicyclo[3.1.1]heptan-3-yl)pyrazin-2-yl)-6-(((S)-4-methylmorpholin-2-yl)methoxy)pyrazolo[1,5-a]pyridine-3-carbonitrile]	6.9 nM	–	excellent activity	14 nM
CCOc1cc(-c2ccc(N3CC4CC(C3)N4Cc3cnc(OC)c(Cl)c3)nc2)c2c(C#N)c(N)nn2c1 [APS105]	< 1 nM	28.1 nM	excellent activity	< 1 nM
COc1ccc(CN2C3CC2CN(c2ccc(-c4cc(OCC(C)(C)O)cn5nc(N)c(C(N)=O)c45)cn2)C3)cn1 [APS106]	745 nM	–	–	971 nM
COc1ccc(CN2C3CC2CN(c2cnc(-c4cc(OC[C@@H]5CN(C)CCO5)cn5nc(N)c(C#N)c45)cn2)C3)cn1 [APS107, 2-amino-4-(5-(6-((6-methoxypyridin-3-yl)methyl)-3,6-diazabicyclo[3.1.1]heptan-3-yl)pyrazin-2-yl)-6-(((S)-4-methylmorpholin-2-yl)methoxy)pyrazolo[1,5-a]pyridine-3-carbonitrile]	< 1 nM	16.3 nM	excellent activity	< 1 nM
COCCOc1cc(-c2ccc(N3CC4CC(C3)N4Cc3cnc(OC)c(Cl)c3)nc2)c2c(C#N)c(N)nn2c1 [APS108, 2-amino-4-(6-(6-((5-chloro-6-methoxypyridin-3-yl)methyl)-3,6-diazabicyclo[3.1.1]heptane-3-yl)pyridin-3-yl)-6-(2-methoxyethoxy)pyrazolo[1,5-a]pyridine-3-carbonitrile]	< 1 nM	10.7 nM	excellent activity	< 1 nM
CCOCCOc1cc(-c2ccc(N3CC4CC(C3)N4Cc3ccc(OC)nc3)nc2)c2c(C#N)c(N)nn2c1 [APS109, 2-amino-6-(2-ethoxyethoxy)-4-(6-(6-((6-methoxypyridin-3-yl)methyl)-3,6-diazabicyclo [3.1.1]heptan-3-yl)pyridin-3-yl)pyrazolo[1,5-a]pyridine-3-carbonitrile]	< 1 nM	57.9 nM	excellent activity	< 1 nM
COc1ccc(CN2C3CC2CN(c2ccc(-c4cc(OCCOC5CC5)cn5nc(N)c(C#N)c45)cn2)C3)cn1 [APS113, 2-amino-6-(2-cyclopropoxyethoxy)-4-(6-(6-((6-methoxypyridin-3-yl)methyl)-3,6-diazabicyclo[3.1.1]heptan-3-yl)pyridin-3-yl)pyrazolo[1,5-a]pyridine-3-carbonitrile]	< 1 nM	83.5 nM	excellent activity	< 1 nM
COc1ccc(CN2C3CC2CN(c2ccc(-c4cc(OCC(F)F)cn5nc(N)c(C#N)c45)cn2)C3)cn1 [APS114, 2-amino-6-(2,2-difluoroethoxy)-4-(6-(6-((6-methoxypyridin-3-yl)methyl)-3,6-diazabicyclo[3.1.1]heptan-3-yl)pyridin-3-yl)pyrazolo[1,5-a]pyridine-3-carbonitrile]	2 nM	–	excellent activity	< 1 nM
COc1ccc(CN2C3CC2CN(c2ccc(-c4cc(OC(F)F)cn5nc(N)c(C#N)c45)cn2)C3)cn1 [APS115, 2-amino-6-(difluoromethoxy)-4-(6-(6-((6-methoxypyridin-3-yl)methyl)-3,6-diazabicyclo[3.1.1]heptan-3-yl)pyridin-3-yl)pyrazolo[1,5-a]pyridine-3-carbonitrile]	45.9 nM	–	–	8.8 nM
